Laboratory results reported in patent US20230110378A1, “MONOBACTAM COMPOUND AND USE THEREOF” (EVOPOINT BIOSCIENCES CO., LTD., priority 2019, published 2023).
Converted amounts (≈) assume the structure as drawn.

Legend:
Test in all cases: Minimum inhibitory concentration (broth microdilution, CLSI)
Format in all cases: cell-based
[1] = test system: Klebsiella pneumoniae HDBKP 9249; details: HDBKP9249
Protocol: (§1) 103 bacterial strains used for the minimum inhibitory concentration test were frozen in a −80° C. ULT freezer and thawed 2 days before use. A small amount of frozen microorganism bacteria were scraped using a sterile inoculating loop, streaked onto a suitable solid culture dish for inoculation, and then cultured for about 20 h at 35 t 2° C. in a normal incubator. • Proteus mirabilis HDBPM 40: MA, normal atmospheric environment • The remaining 102 strains of bacteria: TSA, normal atmospheric environment
(§2) 5-10 colonies with similar morphology were picked from the culture dish using a sterile inoculating loop and then re-streaked onto a corresponding solid culture dish. Then the dish was incubated in a normal incubator at 35 t 2° C. for about 20 h.
(§3) 5-10 single microbial colonies were picked from the solid culture dish, resuspended in 500 μL of sterile normal saline (0.9% NaCl), and adjusted to an OD600 of about 0.15 with a spectrophotometer.
(§4) The bacteria were then diluted 300-fold with 1.02×CAMHB to an inoculation concentration of 2×10^5 CFU/mL.
(§5) • There were a total of 3 assay plate patterns, one of which was used for each assay. • 8 rows of the assay plate (rows A-H) were for 8 test compounds, respectively. The highest test concentration of the compounds was 16, 32 or 64 μg/mL, and each compound was diluted 2-fold. • Growth control (GC): a medium containing microbial inoculum (1.02×CAMHB) and dimethylsulfoxide (DMSO) but no compound.
(§6) The test and reference compounds were dissolved in DMSO or H2O to prepare 6.4 mg/mL stock solutions. The stock solutions were diluted to prepare standby solutions with certain concentrations, and the volumes of the standby solutions were determined according to the experimental design. Corresponding volumes of the standby solutions were transferred to the starting wells of a dilution plate (A1-H1), and half the starting-well volume of DMSO to the other wells. Each compound was diluted 2-fold sequentially from column 1 to column 11 (e.g., transferring 30 μL of DMSO to columns 2-12 first, then pipetting 30 μL of the compounds from column 1 to column 2 and mixing them well, then pipetting 30 μL of the compounds from column 2 to column 3 and mixing them well, then pipetting 30 μL of the compounds from column 3 to column 4 and mixing them well, and so on to column 11).
(§7) 1 or 2 μL of the compounds and DMSO were transferred from the compound plate to corresponding wells of the assay plates.
(§8) 98 μL of corresponding bacterial inocula were added to the assay plates.
(§9) After addition, the assay plates were covered with sterile covers. The mixtures in the assay plates were centrifuged in a centrifuge at 800 rpm for 30 s, mixed well on a microplate shaker at 400 rpm for 1 min, and incubated in a normal incubator at 35 t 2° C. for 20-24 h.
(§10) The assay plates were placed on a plate reading device, and the speculum was adjusted to observe and record the growth condition of bacteria in each well. In the mean time, each assay plate was photographed with QCount system.
(§11) The minimum inhibitory concentration of each compound was recorded by reference to guidelines from the Clinical and Laboratory Standards Institute.
(§12) The minimum inhibitory concentrations of the compounds against experimental strains were tested in this study by reference to the medium microdilution method as indicated by the Clinical and Laboratory Standards Institute. Compounds were diluted two-fold in 96-well plates from the highest detection concentration of 16, 32 or 64 μg/mL. The bacterial inocula in the assay plates were thawed from corresponding medium plates and diluted in 1.02×CAMHB, while growth controls (GC wells) were set up in the assay plates. The minimum inhibitory concentration of each compound against different bacteria was observed and recorded after the assay plates were incubated in a normal incubator at 35 t 2° C. for about 20 h. The minimum inhibitory concentration values for the different compounds are listed in the list below.

[2] = test system: Escherichia coli HDBEC 30048; details: HDBEC30048
Protocol: as §1, §2, §3, §4, §5, §6, §7, §8, §9, §10, §11, §12

[3] = test system: Escherichia coli HDBEC 30008; details: HDBEC30008
Protocol: as §1, §2, §3, §4, §5, §6, §7, §8, §9, §10, §11, §12

[4] = test system: Klebsiella pneumoniae HDBKP 9153; details: HDBKP9153
Protocol: as §1, §2, §3, §4, §5, §6, §7, §8, §9, §10, §11, §12

[5] = test system: Proteus mirabilis HDBPM 40; details: HDBPM40
Protocol: as §1, §2, §3, §4, §5, §6, §7, §8, §9, §10, §11, §12

[6] = test system: Enterobacter cloacae HDBECL 30030; details: HDBECL30030
Protocol: as §1, §2, §3, §4, §5, §6, §7, §8, §9, §10, §11, §12

[7] = test system: Escherichia coli HDBEC 30016; details: HDBEC30016
Protocol: as §1, §2, §3, §4, §5, §6, §7, §8, §9, §10, §11, §12

[8] = test system: Pseudomonas aeruginosa HDBPA 5679; details: HDBPA5679
Protocol: as §1, §2, §3, §4, §5, §6, §7, §8, §9, §10, §11, §12

[9] = test system: Klebsiella pneumoniae HDBKP 30006; details: HDBKP30006
Protocol: as §1, §2, §3, §4, §5, §6, §7, §8, §9, §10, §11, §12

| SMILES | MIC [1] | MIC [2] | MIC [3] | MIC [4] | MIC [5] | MIC [6] | MIC [7] | MIC [8] | MIC [9] |
| --- | --- | --- | --- | --- | --- | --- | --- | --- | --- |
| CC(C)(O/N=C(\C(=O)N[C@@H]1C(=O)N(S(=O)(=O)O)[C@@H]1CNC(=O)c1cc([C@@H]2CCN(C(=O)c3ccc(O)c(O)c3F)C2)no1)c1csc(N)n1)C(=O)O [Compound I-8] | 4 to 8 µg/mL (≈ 5.2 to 10.4 µM) | < 4 µg/mL | < 4 µg/mL | < 4 µg/mL | < 4 µg/mL | < 4 µg/mL | < 4 µg/mL | < 4 µg/mL | 4 to 8 µg/mL (≈ 5.2 to 10.4 µM) |
| C[n+]1cc(-c2ncc(C(=O)NC[C@@H]3[C@H](NC(=O)/C(=N\OC(C)(C)C(=O)O)c4csc(N)n4)C(=O)N3S(=O)(=O)O)s2)cn1CC(N)CN (stereo partly drawn) [Compound I-9] | < 4 µg/mL | > 16 µg/mL | < 4 µg/mL | 8 to 16 µg/mL | < 4 µg/mL | < 4 µg/mL | > 16 µg/mL | > 16 µg/mL | 4 to 8 µg/mL |
| C[n+]1cc(-c2ncc(C(=O)NC[C@@H]3[C@H](NC(=O)/C(=N\OC(C)(C)C(=O)O)c4csc(N)n4)C(=O)N3S(=O)(=O)O)s2)cn1CCCNC(=N)N [Compound I-11] | < 4 µg/mL | 8 to 16 µg/mL | < 4 µg/mL | < 4 µg/mL | < 4 µg/mL | < 4 µg/mL | 8 to 16 µg/mL | > 16 µg/mL | < 4 µg/mL |
| C[n+]1cc(-c2ncc(C(=O)NC[C@@H]3[C@H](NC(=O)/C(=N\OC(C)(C)C(=O)O)c4csc(N)n4)C(=O)N3S(=O)(=O)O)s2)cn1CCCNC(=O)c1cc(=O)c(O)cn1O [Compound I-12] | 4 to 8 µg/mL | < 4 µg/mL | < 4 µg/mL | < 4 µg/mL | < 4 µg/mL | < 4 µg/mL | < 4 µg/mL | < 4 µg/mL | 8 to 16 µg/mL |
| C[n+]1cc(C(=O)NC[C@@H]2[C@H](NC(=O)/C(=N\OC(C)(C)C(=O)O)c3csc(N)n3)C(=O)N2S(=O)(=O)O)sc1-c1cnn(CC(N)CN)c1 (stereo partly drawn) [Compound I-13] | < 4 µg/mL | > 16 µg/mL | 8 to 16 µg/mL | 4 to 8 µg/mL | < 4 µg/mL | 4 to 8 µg/mL | > 16 µg/mL | > 16 µg/mL | 8 to 16 µg/mL |
| CC(C)(O/N=C(\C(=O)N[C@@H]1C(=O)N(S(=O)(=O)O)[C@@H]1CNC(=O)c1cc([C@@H]2CCN(C(=O)c3cc(=O)c(O)cn3O)C2)no1)c1nsc(N)n1)C(=O)O [Compound I-14] | > 16 µg/mL | < 4 µg/mL | < 4 µg/mL | < 4 µg/mL | < 4 µg/mL | < 4 µg/mL | > 16 µg/mL | < 4 µg/mL | > 16 µg/mL |
| C[n+]1cc(-c2ncc(C(=O)NC[C@@H]3[C@H](NC(=O)/C(=N\OC(C)(C)C(=O)O)c4nsc(N)n4)C(=O)N3S(=O)(=O)O)s2)cn1CC(N)CN (stereo partly drawn) [Compound I-15] | > 16 µg/mL | > 16 µg/mL | 4 to 8 µg/mL | > 16 µg/mL | < 4 µg/mL | 4 to 8 µg/mL | > 16 µg/mL | > 16 µg/mL | > 16 µg/mL |
| C[n+]1cc(-c2ncc(C(=O)NC[C@@H]3[C@H](NC(=O)/C(=N\OC(C)(C)C(=O)O)c4nsc(N)n4)C(=O)N3S(=O)(=O)O)s2)cn1CCCN [Compound I-16] | 8 to 16 µg/mL | > 16 µg/mL | 8 to 16 µg/mL | > 16 µg/mL | < 4 µg/mL | > 16 µg/mL | > 16 µg/mL | > 16 µg/mL | > 16 µg/mL |
| Nc1nc(/C(=N/OC2(C(=O)O)CC2)C(=O)N[C@H]2C(=O)N(S(=O)(=O)O)[C@H]2CNC(=O)c2cc([C@@H]3CCN(C(=O)c4cc(=O)c(O)cn4O)C3)no2)cs1 [Compound I-17] | < 4 µg/mL | < 4 µg/mL | < 4 µg/mL | < 4 µg/mL | < 4 µg/mL | < 4 µg/mL | 4 to 8 µg/mL (≈ 5.22 to 10.4 µM) | < 4 µg/mL | > 16 µg/mL |
| CC(C)(O/N=C(\C(=O)N[C@H]1C(=O)N(S(=O)(=O)O)[C@H]1CNC(=O)c1cc([C@@H]2CCN(C(=O)c3ccc(O)c(O)c3Cl)C2)no1)c1csc(N)n1)C(=O)O [Compound I-18] | > 16 µg/mL | < 4 µg/mL | < 4 µg/mL | 4 to 8 µg/mL (≈ 5.09 to 10.2 µM) | < 4 µg/mL | < 4 µg/mL | 8 to 16 µg/mL (≈ 10.2 to 20.4 µM) | 4 to 8 µg/mL (≈ 5.09 to 10.2 µM) | > 16 µg/mL |
| CC(C)(O/N=C(\C(=O)N[C@H]1C(=O)N(S(=O)(=O)O)[C@H]1CNC(=O)c1cc([C@@H]2CCN(C(=O)c3cc(Cl)c(O)c(O)c3Cl)C2)no1)c1csc(N)n1)C(=O)O [Compound I-19] | 8 to 16 µg/mL (≈ 9.76 to 19.5 µM) | < 4 µg/mL | < 4 µg/mL | < 4 µg/mL | < 4 µg/mL | < 4 µg/mL | 4 to 8 µg/mL (≈ 4.88 to 9.76 µM) | 4 to 8 µg/mL (≈ 4.88 to 9.76 µM) | > 16 µg/mL |

Second part, the molecule after the results:

| MIC [1] | MIC [2] | MIC [3] | MIC [4] | MIC [5] | MIC [6] | MIC [7] | MIC [8] | MIC [9] | SMILES |
| --- | --- | --- | --- | --- | --- | --- | --- | --- | --- |
| < 4 µg/mL | > 16 µg/mL | 4 to 8 µg/mL | > 16 µg/mL | < 4 µg/mL | < 4 µg/mL | > 16 µg/mL | > 16 µg/mL | 4 to 8 µg/mL | C[n+]1cc(-c2cc(C(=O)NC[C@@H]3[C@H](NC(=O)/C(=N\OC(C)(C)C(=O)O)c4csc(N)n4)C(=O)N3S(=O)(=O)O)on2)cn1CCCN [Compound I-1] |
| < 4 µg/mL | > 16 µg/mL | < 4 µg/mL | < 4 µg/mL | < 4 µg/mL | < 4 µg/mL | > 16 µg/mL | > 16 µg/mL | < 4 µg/mL | C[n+]1cc(-c2ncc(C(=O)NC[C@@H]3[C@H](NC(=O)/C(=N\OC(C)(C)C(=O)O)c4csc(N)n4)C(=O)N3S(=O)(=O)O)s2)cn1CCCN [Compound I-2] |
| < 4 µg/mL | > 16 µg/mL | < 4 µg/mL | > 16 µg/mL | < 4 µg/mL | < 4 µg/mL | > 16 µg/mL | > 16 µg/mL | 4 to 8 µg/mL | CC(C)(O/N=C(\C(=O)N[C@@H]1C(=O)N(S(=O)(=O)O)[C@@H]1CNC(=O)c1cc(-c2cc[n+](CCNC(=N)N)cc2)no1)c1csc(N)n1)C(=O)O [Compound I-3] |
| < 4 µg/mL | > 16 µg/mL | 4 to 8 µg/mL | > 16 µg/mL | < 4 µg/mL | 4 to 8 µg/mL | > 16 µg/mL | > 16 µg/mL | > 16 µg/mL | CC(C)(O/N=C(\C(=O)N[C@@H]1C(=O)N(S(=O)(=O)O)[C@@H]1CNC(=O)c1cc(-c2cc[n+](CCN)cc2)no1)c1csc(N)n1)C(=O)O [Compound I-4] |
| < 4 µg/mL | > 16 µg/mL | < 4 µg/mL | > 16 µg/mL | < 4 µg/mL | < 4 µg/mL | > 16 µg/mL | > 16 µg/mL | > 16 µg/mL | CC(C)(O/N=C(\C(=O)N[C@@H]1C(=O)N(S(=O)(=O)O)[C@@H]1CNC(=O)c1cc([C@@H]2CCNC2)no1)c1csc(N)n1)C(=O)O [Compound I-5] |
| < 4 µg/mL | > 16 µg/mL | < 4 µg/mL | > 16 µg/mL | < 4 µg/mL | < 4 µg/mL | > 16 µg/mL | > 16 µg/mL | > 16 µg/mL | CC(C)(O/N=C(\C(=O)N[C@@H]1C(=O)N(S(=O)(=O)O)[C@@H]1CNC(=O)c1cc(C2CNC2)no1)c1csc(N)n1)C(=O)O [Compound I-6] |
